# According to US11878975B2, “Substituted indole compounds useful as TLR inhibitors” (BRISTOL-MYERS SQUIBB COMPANY, priority 2017, dated 2024):
# Columns and labels:
# Type in all cases: cell-based
# human TLR7 = target: T1, human TLR7 (Homo sapiens, UniProt Q9NYK1); experiment: TLR7 inhibition reporter assay (HEK-Blue cells, SEAP reporter, gardiquimod stimulation); details: HEK-Blue cells overexpressing human TLR7, SEAP reporter, gardiquimod 7.5 μM
# T1 construct: host or cells: HEK-Blue cells
# T1 sequence (Q9NYK1 27-1049): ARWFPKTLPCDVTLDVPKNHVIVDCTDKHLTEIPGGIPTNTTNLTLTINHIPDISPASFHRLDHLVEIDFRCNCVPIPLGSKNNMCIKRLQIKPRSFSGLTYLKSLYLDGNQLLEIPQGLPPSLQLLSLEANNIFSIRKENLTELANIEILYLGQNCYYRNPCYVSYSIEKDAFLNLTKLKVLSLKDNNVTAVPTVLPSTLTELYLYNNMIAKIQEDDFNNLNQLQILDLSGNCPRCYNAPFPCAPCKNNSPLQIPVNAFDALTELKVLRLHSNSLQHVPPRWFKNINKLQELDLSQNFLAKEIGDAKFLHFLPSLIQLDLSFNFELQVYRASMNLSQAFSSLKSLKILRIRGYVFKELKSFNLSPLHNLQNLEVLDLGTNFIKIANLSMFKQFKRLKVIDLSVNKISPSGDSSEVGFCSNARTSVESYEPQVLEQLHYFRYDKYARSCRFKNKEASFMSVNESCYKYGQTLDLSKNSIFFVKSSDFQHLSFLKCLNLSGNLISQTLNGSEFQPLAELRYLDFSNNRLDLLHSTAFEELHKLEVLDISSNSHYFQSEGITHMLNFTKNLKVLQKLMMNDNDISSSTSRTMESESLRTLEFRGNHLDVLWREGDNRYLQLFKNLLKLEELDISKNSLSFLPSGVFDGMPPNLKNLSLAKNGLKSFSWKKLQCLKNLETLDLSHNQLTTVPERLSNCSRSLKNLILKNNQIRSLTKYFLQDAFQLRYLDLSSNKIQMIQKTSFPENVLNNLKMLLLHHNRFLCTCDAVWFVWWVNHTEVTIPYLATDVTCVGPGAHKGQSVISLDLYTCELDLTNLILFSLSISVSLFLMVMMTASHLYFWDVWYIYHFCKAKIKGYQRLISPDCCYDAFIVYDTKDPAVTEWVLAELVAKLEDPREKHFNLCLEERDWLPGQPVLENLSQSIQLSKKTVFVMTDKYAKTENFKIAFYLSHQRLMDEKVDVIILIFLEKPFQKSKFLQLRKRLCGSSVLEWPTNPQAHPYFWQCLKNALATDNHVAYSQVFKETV
# Protocol: (§1) TLR7/8/9 Inhibition Reporter Assays
# (§2) HEK-Blue™-cells (Invivogen) overexpressing human TLR7, TLR8 or TLR9 receptors were used for screening inhibitors of these receptors using an inducible SEAP (secreted embryonic alkaline phosphatase) reporter gene under the control of the IFN-β minimal promoter fused to five NF-κB and AP-1-binding sites. Briefly, cells are seeded into Greiner 384 well plates (15000 cells per well for TLR7, 20,000 for TLR8 and 25,000 for TLR9) and then treated with test compounds in DMSO to yield a final dose response concentration range of 0.05 nM-50 μM. After a 30 minute compound pre-treatment al room temperature, the cells are then stimulated with a TLR7 ligand (gardiquimod at a final concentration of 7.5 μM), TLR8 ligand (R848 at a final concentration of 15.9 μM) or TLR9 ligand (ODN2006 at a final concentration of 5 nM) to activate NF-κB and AP-1 which induce the production of SEAP. After a 22 hour incubation at 37° C., 5% CO2, SEAP levels are determined with the addition of HEK-Blue™ Detection reagent (Invivogen), a cell culture medium that allows for detection of SEAP, according to manufacturer's specifications. The percent inhibition is determined as the % reduction in the HEK-Blue signal present in wells treated with agonist plus DMSO alone compared to wells treated with a known inhibitor.
# human TLR8 = target: T2, human TLR8 (Homo sapiens, UniProt Q9NR97); experiment: TLR8 inhibition reporter assay (HEK-Blue cells, SEAP reporter, R848 stimulation); details: HEK-Blue cells overexpressing human TLR8, SEAP reporter, R848 15.9 μM
# T2 construct: host or cells: HEK-Blue cells
# T2 sequence (Q9NR97 27-1041): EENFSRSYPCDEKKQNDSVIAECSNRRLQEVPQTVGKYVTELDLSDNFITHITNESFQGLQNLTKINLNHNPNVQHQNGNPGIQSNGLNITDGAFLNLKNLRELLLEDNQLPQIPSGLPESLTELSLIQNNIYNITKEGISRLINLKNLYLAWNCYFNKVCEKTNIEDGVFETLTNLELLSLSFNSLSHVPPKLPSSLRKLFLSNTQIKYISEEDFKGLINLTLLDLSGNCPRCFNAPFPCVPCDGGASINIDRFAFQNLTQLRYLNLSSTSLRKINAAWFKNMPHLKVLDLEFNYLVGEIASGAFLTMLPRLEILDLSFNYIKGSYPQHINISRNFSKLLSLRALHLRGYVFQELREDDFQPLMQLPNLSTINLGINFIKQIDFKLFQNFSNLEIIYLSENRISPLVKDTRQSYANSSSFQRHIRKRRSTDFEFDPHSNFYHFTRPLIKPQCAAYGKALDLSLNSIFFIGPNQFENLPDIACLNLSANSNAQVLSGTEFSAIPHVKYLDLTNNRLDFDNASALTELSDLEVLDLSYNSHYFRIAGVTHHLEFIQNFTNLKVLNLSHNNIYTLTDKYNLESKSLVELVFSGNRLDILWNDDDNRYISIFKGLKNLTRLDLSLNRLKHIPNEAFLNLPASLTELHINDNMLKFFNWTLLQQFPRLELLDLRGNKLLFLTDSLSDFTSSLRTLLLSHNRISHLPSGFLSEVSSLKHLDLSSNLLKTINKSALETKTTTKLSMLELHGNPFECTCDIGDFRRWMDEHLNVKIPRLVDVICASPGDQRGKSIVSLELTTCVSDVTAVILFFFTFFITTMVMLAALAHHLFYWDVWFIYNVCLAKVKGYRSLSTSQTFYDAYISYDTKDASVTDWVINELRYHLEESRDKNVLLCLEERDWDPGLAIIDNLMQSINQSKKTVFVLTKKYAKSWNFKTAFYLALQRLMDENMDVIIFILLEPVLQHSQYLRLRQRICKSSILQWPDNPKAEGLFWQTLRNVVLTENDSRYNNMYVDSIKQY
# Protocol: as §1, §2
# human TLR9 = target: T3, human TLR9 (Homo sapiens, UniProt Q9NR96); experiment: TLR9 inhibition reporter assay (HEK-Blue cells, SEAP reporter, ODN2006 stimulation); details: HEK-Blue cells overexpressing human TLR9, SEAP reporter, ODN2006 5 nM
# T3 construct: host or cells: HEK-Blue cells
# T3 sequence (Q9NR96 26-1032): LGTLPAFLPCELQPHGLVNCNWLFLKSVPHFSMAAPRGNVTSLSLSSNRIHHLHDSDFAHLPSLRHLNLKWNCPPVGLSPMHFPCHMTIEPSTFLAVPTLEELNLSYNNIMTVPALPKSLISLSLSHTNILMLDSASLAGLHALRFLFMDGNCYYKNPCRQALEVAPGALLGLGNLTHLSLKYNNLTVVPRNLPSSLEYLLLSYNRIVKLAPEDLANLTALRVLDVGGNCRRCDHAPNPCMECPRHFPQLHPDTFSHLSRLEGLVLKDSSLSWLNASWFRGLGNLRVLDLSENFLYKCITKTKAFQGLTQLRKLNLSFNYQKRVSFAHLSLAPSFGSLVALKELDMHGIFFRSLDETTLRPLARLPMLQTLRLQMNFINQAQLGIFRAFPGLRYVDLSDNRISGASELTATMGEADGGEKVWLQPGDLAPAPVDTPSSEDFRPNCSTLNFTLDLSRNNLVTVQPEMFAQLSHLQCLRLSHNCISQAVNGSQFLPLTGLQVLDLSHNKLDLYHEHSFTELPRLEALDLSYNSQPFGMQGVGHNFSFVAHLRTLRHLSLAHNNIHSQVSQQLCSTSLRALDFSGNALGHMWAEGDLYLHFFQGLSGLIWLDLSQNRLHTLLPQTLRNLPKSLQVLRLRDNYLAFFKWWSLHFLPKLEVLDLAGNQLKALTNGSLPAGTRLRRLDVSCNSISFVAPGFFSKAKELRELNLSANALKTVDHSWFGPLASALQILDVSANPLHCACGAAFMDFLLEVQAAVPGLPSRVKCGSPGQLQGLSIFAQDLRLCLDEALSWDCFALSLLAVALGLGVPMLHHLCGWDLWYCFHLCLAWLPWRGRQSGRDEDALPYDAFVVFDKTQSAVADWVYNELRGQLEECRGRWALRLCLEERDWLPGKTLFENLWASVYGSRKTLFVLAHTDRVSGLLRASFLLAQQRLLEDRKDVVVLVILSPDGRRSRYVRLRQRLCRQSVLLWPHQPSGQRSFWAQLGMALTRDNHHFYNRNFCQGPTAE
# Protocol: as §1, §2
SMILES,IC50 (human TLR7) [nM],IC50 (human TLR8) [nM],IC50 (human TLR9) [nM]
COc1cc(-c2[nH]c3ccc(C4CCC(NC(=O)CNC5COC5)CC4)cc3c2C(C)C)cn2ncnc12 (stereo not drawn) [Example 139],18,40,> 50000
Cc1cc(-c2[nH]c3ccc(C4CCCCC4)cc3c2C(C)C)cn(C)c1=O [Example 470],568,3130,18300
"Cc1c(-c2[nH]c3ccc(C4CCC(N5CC(CO)(CO)C5)CC4)cc3c2C(C)C)cn2ncnc2c1C (single isomer, unassigned) [Example 27]",2,2.8,1760
Cc1cc(-c2[nH]c3ccc(C4CN(CCS(C)(=O)=O)CCO4)cc3c2C(C)C)cn2ncnc12 (stereo not drawn) [Example 344],7,14,> 50000
CNC(=O)CN1CC2CC(c3ccc4[nH]c(-c5cn6ncnc6c(C)c5C)c(C(C)C)c4c3)CC2C1 (stereo not drawn) [Example 510],2,12,20700
Cc1c(-c2[nH]c3ccc(C4CC(NCCS(C)(=O)=O)C4)cc3c2C(C)C)cn(C)c(=O)c1C (stereo not drawn) [Example 495],38,1.3,20700
Cc1cc(-c2[nH]c3ccc(C4CCCCC4)cc3c2C(C)C)cc(C)n1 [Example 469],1110,3130,9020
CNC(=O)CN1CC(c2ccc3[nH]c(-c4cn5ncnc5c(C)c4C)c(C(C)C)c3c2)C1 [Example 552],4,3.4,5570
Cc1cc(-c2[nH]c3ccc(C4CCC(N5CCC(F)(F)CC5)CC4)cc3c2C(C)C)cn(C)c1=O (stereo not drawn) [Example 466],32,26,> 50000
Cc1c(-c2[nH]c3ccc(CC4CN(CCS(C)(=O)=O)C4)cc3c2C(C)C)cn(C)c(=O)c1C [Example 418],77,7,9210
"Cc1cc(-c2[nH]c3ccc(C4CCC(CN(C)C)CC4)cc3c2C(C)C)cc(C)n1 (stereo not drawn) [Example 176, 1-(4-(2-(2,6-dimethylpyridin-4-yl)-3-isopropyl-1H-indol-5-yl)cyclohexyl)-N,N-dimethylmethanamine]",26,55,8890
COCCN1CC(c2ccc3[nH]c(-c4cc(C)c5ncnn5c4)c(C(C)C)c3c2)OCC1(C)C (stereo not drawn) [Example 382],15,3.4,7170
"Cc1cc(-c2[nH]c3ccc(C4CCC(C)(O)CC4)cc3c2C(C)C)cc(C)n1 (single isomer, unassigned) [Example 169]",29,293,41300
"Cc1cc(-c2[nH]c3ccc(C4CN(C5COC5)CCO4)cc3c2C(C)C)cn2ncnc12 (stereo not drawn) [Example 289, 2-(3-isopropyl-2-(8-methyl-[1,2,4]triazolo[1,5-a]pyridin-6-yl)-1H-indol-5-yl)-4-(oxetan-3-yl)morpholine]",9,24,> 50000

# These reach a lower IC50 (human TLR7). Values come first.
IC50 (human TLR7) [nM],IC50 (human TLR8) [nM],IC50 (human TLR9) [nM],SMILES
0.7,5.6,14200,COc1cc(-c2[nH]c3ccc(C4CCC(NC(=O)CNCC(C)(C)O)CC4)cc3c2C(C)C)cn2ncnc12 (stereo not drawn) [Example 140]
0.65,6.2,2800,COc1cc(-c2[nH]c3ccc(C4CN(C(=O)CN(C)C)CCO4)cc3c2C(C)C)cn2ncnc12 (stereo not drawn) [Example 332]
1,14,597,Cc1cc(-c2[nH]c3ccc(C4CCC(N)CC4)cc3c2C(C)C)cc(C)n1 (stereo not drawn) [Example 5]
0.44,1.5,6040,"CCN(C)CC(=O)NC1CCC(c2ccc3[nH]c(-c4cc(OC)c5ncnn5c4)c(C(C)C)c3c2)CC1 (stereo not drawn) [Example 132, 2-(ethyl(methyl)amino)-N-(4-(3-isopropyl-2-(8-methoxy-[1,2,4]triazole [1,5-a]pyridin-6-yl)-1H-indol-5-yl)cyclohexyl)acetamide]"
0.53,0.33,2320,COc1cc(-c2[nH]c3ccc(C4CC(NCCS(C)(=O)=O)C4)cc3c2C(C)C)cn2ncnc12 (stereo not drawn) [Example 571]
0.72,1.4,2490,Cc1cc(-c2[nH]c3ccc(CC4CCCN4C4CCOCC4)cc3c2C(C)C)cn2ncnc12 (stereo not drawn) [Example 425]
0.26,1.9,909,COc1cc(-c2[nH]c3ccc(C4CCC(N5CCC[C@H]5C(N)=O)CC4)cc3c2C(C)C)cn2ncnc12 (stereo partly drawn) [Example 29]
